The results in this text go back to US20230339983A1, “FLUORESCENT COMPOUNDS SPECIFIC FOR PLURIPOTENT STEM CELLS AND REPROGRAMMING-READY CELLS AND METHODS OF USING THE SAME” (Agency for Science, Technology and Research, priority 2018, published 2023).

Common to all, as to type: cell-based, human
Experiment [1] deals with reprogramming (RP) versus non-reprogramming (non-RP) DPSCs (DPSC1). As to the kind of experiment: Signal-to-noise comparison of reprogramming versus non-reprogramming cells. How it is done: FIG. 14: (A) Graph representing signal-to-noise ratios (arbitrary fluorescence units) on comparing reprogramming (RP) versus non-reprogramming (non-RP) DPSCs (DPSC1) stained with either CDy1 or BDL-E5. The fluorescence intensity was measured using ImageJ software. 100 cells per field (10×), 10 fields per well, 3 wells per probe were measured. […] denotes significance between RP and non-RP cells. (B) Proliferation assay of DPSC1 incubated with BDL-E5 (500 nM) for 2 to 5 days; represented as number of viable cells per cm^2 (n=3). (C) Proliferation assay of reprogramming DPSC1, 48 h after transfection with Scr CREB1, CREB1 OE or siCREB1; represented as number of viable cells per cm^2 (n=3).

Experiment [2] deals with reprogrammed ASCs and DPSCs on microcarriers. Kind of experiment: Fluorescent probe staining on Cytodex 3 microcarriers (3D culture). The following applies: 14 and 21 dpn. The procedure: Reprogrammed monolayer ASCs and DPSCs were dissociated into single cell suspension using Dispase. Single cell suspension was transferred into a 6-well Suspension Culture Plate (Greiner bio-one) with Matrigel (Geltrex™, ThermoFisher)-coated Cytodex 3 microcarrier in 4 ml of mTeSR1 supplemented with 10 μM of Rock Inhibitor Y27632 (Calbiochem). The plate was placed on an orbital shaker (110 rpm) for at least 2 hours for cell attachment. Afterward, the plate was transferred to static condition and incubated at 37° C./5% CO2. Media change was carried out with mTeSR1 daily thereafter by aspirating […] of spent medium from the well and adding 4 ml of fresh media (80% medium exchange). On Day 7, the cells on microcarriers were supplemented and maintained with 4 ml of mTeSR1+SMC4 media. 80% medium change was carried out every day.
BDL-E5 probe staining of reprogrammed ASCs and DPSCs on microcarriers was carried out on Day 14 and 21 dpn. The microcarrier culture was washed twice with sterile D-PBS. Prior to staining, media was changed to mTeSR1 with 500 nM BDL-E5 probe and Alexa Fluor® 488 Mouse anti-human TRA-1-60 (200× dilution) (BD Pharmingen™). Cultures were incubated for 1 hour. The cells were then washed twice with D-PBS and replaced with mTeSR1 prior to imaging. Images were taken using Axio Observer Fluorescent Microscope (Carl Zeiss). […]

Experiment [3] has as its system reprogramming DPSCs at 7 dpn. As to the kind of experiment: Fluorescent subcellular organelle co-staining. The following applies: confocal; ER, Golgi, lysosome, mitochondria marker dyes. The text has this: Reprogrammed DPSCs at 7 dpn on MG were stained for cell organelle marker dyes (Molecular Probes) for endoplasmic reticulum (ER) (ER-Tracker™ Green (BODIPY® FL Glibenclamide)), Golgi complex (BODIPY® FL C5-Ceramide (N-(4,4-Difluoro-5,7-Dimethyl-4-Bora-3a,4a-Diaza-s-Indacene-3-Pentanoyl)Sphingosine)), lysosome (LysoTracker® Green DND-26), or mitochondria (MitoTracker® Green FM). Confocal images were taken to visualize the staining.
To determine the subcellular organelle localization of BDL-E5 in reprogramming cells, 7 dpn DPSCs on MG were stained for BDL-E5 and organelle marker dyes for endoplasmic reticulum (ER), Golgi complex, lysosome, or mitochondria.

In the next experiment the test system is reprogramming DPSCs. As to the kind of experiment: BDL-E5 live staining time course of episomally reprogrammed DPSCs on MG. How it is done: Episomal plasmids developed by Yamanaka's lab were obtained from Addgene: pCXLEhOct3/4-shp53-F (Addgene #27077), pCXLE-hSK (Addgene #27078), pCXLE-hUL (Addgene #27080) and pCXLE-EGFP (Addgene #27082) (Okita, et al. (2011). Nat Methods 8, 409-412). 1×10^6 cells were suspended together with 1 μg of each episomal vector in Nucleofector solution supplied in the Nucleofector Kit R (Lonza). Then the cells were transfected with the Program FF-113 on a Nucleofector 2b Device. The transfected cells were then cultured in ASC or DPSC medium (MSC medium) supplemented with 0.5 mM sodium butyrate, with daily media change. On Day 7 dpn, 1×10^5 viable cells were seeded over MEF feeders (GlobalStem) into one well of a 6-well plate for feeder-based iPS derivation; 2×10^5 viable cells were seeded for feeder-free iPS derivation into one well of a 6-well plate pre-coated with Matrigel (Corning). The next day, MSC medium was changed to feeder-based hES medium (DMEM/F12 supplemented with 20% knock out serum replacement, 1% GlutaMAX, 1% NEAA, Pen/Strep, 0.1 mM p-mercaptoethanol and 10 ng/ml b-FGF) or to feeder-free mTeSR1 (StemCell Technologies), supplemented with sodium butyrate. At 12 dpn, supplementation of sodium butyrate was stopped, and conditioned further with SMC4 cocktail (consisting of small molecules: PD0325901, CHIR99021, Thiazovivin, and SB431542 (FOCUS Biomolecules)) in hES medium/mTeSR1. This media supplement was continued until initial colony formation began.
Reprogrammed cells were immune-stained with fluorescent live cell stain TRA-1-60 (R&D Systems, GloLIVE NL557) as per manufacturer's instructions. After incubating with the live staining antibodies for 30 min and Hoechst 33342 for 10 min, cells were washed 3 times with PBS and images with the Cy5 and DAPI channels, respectively, were immediately captured.
Further experiments were carried out using BDL-E5. To determine whether BDL-E5 identifies the early stages of pluripotency, ASCs and DPSCs were reprogrammed using nucleofection of episomal vectors, and seeded onto MG-coated plates (feeder-free, viral-free reprogramming method). […]

For the compound `COc1cc(F)c(/C=C/c2cc(C)c3n2[B-](F)(F)[N+]2=C(CCC(=O)NCCN(C)C)C=CC2=C3)cc1OC` [BDL-E5], the “signal toward reprogramming cells and background staining against non-reprogramming cells” value in experiment [1] is “low non-specific staining against non-reprogramming cells”. Besides, in experiment [2] (500 nM, 1 h), the “staining of reprogrammed cells on microcarriers” value is on record as “clearly observed”. For the same compound, the “background staining of Cytodex 3 microcarriers themselves” value in experiment [2] is recorded as “no background BDL-E5 staining”. Moreover, the subcellular organelle localization entry in experiment [3] was “co-localize significantly with Golgi complex staining”. For the same compound, the “intensity of fluorescence of staining at 7, 14, 21, 28 dpn” value in the experiment with reprogramming DPSCs (iPS colonies formed from DPSCs) is “increased with increasing time”. Further, in the experiment with reprogramming DPSCs (reprogrammed DPSCs, staining every 48 h, 10-24 dpn), the “fate of stained cells tracked in the same field of view until colony formation” value was “only cells staining positive for BDL-E5 formed iPS colonies”. In addition, in the experiment with reprogramming DPSCs (reprogramming DPSCs, MG-coated plates, episomal feeder-free), the “time at which positive cells/colonies were found” value turned out to be 7 dpn.
